In US20230407373A1 (priority 2020, published 2023):
Like-named read-outs stand apart in the source and are kept apart here.

What was measured:
Assay type in all cases: binding
SARS-CoV-2 gRNA = conditions: for target (unweighted spectral count in RNP capture): Probe I capture, LC-MS/MS LFQ; for background (unweighted spectral count in control): no-probe control pull-down, used as background for Probe I; for target (unweighted spectral count of the protein in the RNP capture): LC-MS/MS, Probe I sample (first 199 lines of Table 2)
HCoV-OC43 gRNA and sgRNA = conditions: for target (unweighted spectral count): OC43 Probe II, infected cells; for target (spectral count) / background (spectral count): type s_36_m, Probe II; for target (spectral count): HCoV-OC43-infected HCT-8 cells; for background (spectral count): uninfected-probe control
[1] = test system: SARS-CoV-2 gRNA and sgRNAs; conditions: for target (unweighted spectral count in RNP capture): Probe II capture, LC-MS/MS LFQ; for background (unweighted spectral count in control): no-probe control pull-down, used as background for Probe II; for back-ground (unweighted spectral count of the protein in the control experiment): protein background of the control (e.g. no-probe) experiment
gRNA of HCoV-OC43 = conditions: for target (spectral count) / background (spectral count): type g_36_m, 36 hpi, Probe I; for target (spectral count): HCoV-OC43-infected HCT-8 cells; for background (spectral count): uninfected-probe control
[2] = 36 hpi, type n_36_v, tested against no-probe control, FDR<10%
[3] = type n_48_v, 48 hpi, OC43 Probe II capture on infected cells
[4] = type n_48_v, 48 hpi, no-probe control on infected cells
[5] = 24 hpi, type n_24_v, tested against no-probe control, FDR<10%
[6] = 12 hpi (type n_12_v), tested against no-probe control
[7] = 24 hpi (type n_24_v), tested against no-probe control
[8] = type n_48_v: 48 hours post-infection, infected cells, OC43 Probe I, unweighted spectral count
[9] = type n_48_v: 48 hours post-infection, no-probe control on infected cells

In the case of EZR, the “target (unweighted spectral count in RNP capture)” value (SARS-CoV-2 gRNA) was 5 and the “background (unweighted spectral count in control)” value (SARS-CoV-2 gRNA) was 1.
FAM98A was tested, and the “target (unweighted spectral count, OC43 Probe II capture)” value (HCoV-OC43 gRNA and sgRNA; [2]) was 4, the “target (unweighted spectral count, OC43 Probe II)” value (HCoV-OC43 gRNA and sgRNA; [3]) was 5 and the “background (unweighted spectral count, no-probe control)” value (HCoV-OC43 gRNA and sgRNA; [4]) was 1. For the same substance, the “target (unweighted spectral count of the protein in the RNP capture)” value (SARS-CoV-2 gRNA) was 7.
FXR1 was tested, and the “target (unweighted spectral count, OC43 Probe II capture)” value (HCoV-OC43 gRNA and sgRNA; [2]) was 5, the “target (unweighted spectral count, OC43 Probe II)” value (HCoV-OC43 gRNA and sgRNA; [3]) was 9 and the “background (unweighted spectral count, no-probe control)” value (HCoV-OC43 gRNA and sgRNA; [4]) was 1. For the same substance, the “target (unweighted spectral count of the protein in the RNP capture)” value (SARS-CoV-2 gRNA) was 9, the “target (unweighted spectral count in RNP capture)” value ([1]; […]) was 47 and the “background (unweighted spectral count in control)” value [1] was 1.
G3BP1 was tested, and the “target (unweighted spectral count, OC43 Probe II capture)” value (HCoV-OC43 gRNA and sgRNA; [5]) was 5, the “target (unweighted spectral count, OC43 Probe II capture)” value (HCoV-OC43 gRNA and sgRNA; [2]) was 8 and the “target (unweighted spectral count)” value (HCoV-OC43 gRNA and sgRNA; [6]) was 5. The “target (unweighted spectral count of the protein in the RNP capture)” value (SARS-CoV-2 gRNA) was 55, the “target (unweighted spectral count in RNP capture)” value ([1]; […]) was 54 and the “background (unweighted spectral count in control)” value [1] was 1.
GAPDM was tested, and the “target (unweighted spectral count of the protein in the RNP capture)” value (SARS-CoV-2 gRNA) was 7.
HNRNPK: host protein, UniProt P61978 was tested, and the “target (unweighted spectral count, OC43 Probe II capture)” value (HCoV-OC43 gRNA and sgRNA; [2]) was 66, the “target (unweighted spectral count)” value (HCoV-OC43 gRNA and sgRNA; [7]) was 28 and the “target (unweighted spectral count, OC43 Probe II)” value (HCoV-OC43 gRNA and sgRNA; [3]) was 63. For the same substance, the “background (unweighted spectral count, no-probe control)” value (HCoV-OC43 gRNA and sgRNA; [4]) was 8, the “target (spectral count)” value (HCoV-OC43 gRNA and sgRNA; 36 hpi) was 66 and the “background (spectral count)” value (HCoV-OC43 gRNA and sgRNA; 36 hpi) was 12. For the same substance, the “target (spectral count)” value (gRNA of HCoV-OC43) was 65, the “background (spectral count)” value (gRNA of HCoV-OC43) was 16 and the “target (spectral count, OC43 Probe I RNP capture)” value (gRNA of HCoV-OC43; [8]) was 64. The “background (spectral count, no-probe control)” value (gRNA of HCoV-OC43; [9]) was 8, the “target (unweighted spectral count in RNP capture)” value ([1]; […]) was 52 and the “background (unweighted spectral count in control)” value [1] was 1.
For HSPB1, the “target (unweighted spectral count in RNP capture)” value (SARS-CoV-2 gRNA) was 5 and the “background (unweighted spectral count in control)” value (SARS-CoV-2 gRNA) was 1.
KHORBS1 was tested, and the “target (unweighted spectral count of the protein in the RNP capture)” value (SARS-CoV-2 gRNA) was 19.
For MRPL28: host protein, UniProt Q13084, the “target (unweighted spectral count, OC43 Probe II)” value (HCoV-OC43 gRNA and sgRNA; [3]) was 7, the “background (unweighted spectral count, no-probe control)” value (HCoV-OC43 gRNA and sgRNA; [4]) was 1 and the “target (unweighted spectral count of the protein in the RNP capture)” value (SARS-CoV-2 gRNA) was 12. The “target (spectral count)” value (gRNA of HCoV-OC43) was 13, the “background (spectral count)” value (gRNA of HCoV-OC43) was 1 and the “target (spectral count, OC43 Probe I RNP capture)” value (gRNA of HCoV-OC43; [8]) was 10. The “background (spectral count, no-probe control)” value (gRNA of HCoV-OC43; [9]) was 1.
NPM1 was tested, and the “target (unweighted spectral count, OC43 Probe II capture)” value (HCoV-OC43 gRNA and sgRNA; [5]) was 7, the “target (unweighted spectral count)” value (HCoV-OC43 gRNA and sgRNA; [6]) was 4 and the “target (unweighted spectral count of the protein in the RNP capture)” value (SARS-CoV-2 gRNA) was 13. The “target (unweighted spectral count in RNP capture)” value ([1]; […]) was 17 and the “background (unweighted spectral count in control)” value [1] was 1.
With PCBP1 the “target (unweighted spectral count, OC43 Probe II capture)” value (HCoV-OC43 gRNA and sgRNA; [2]) was 16, the “target (unweighted spectral count)” value (HCoV-OC43 gRNA and sgRNA; [6]) was 8 and the “target (unweighted spectral count)” value (HCoV-OC43 gRNA and sgRNA; [7]) was 8. The “target (unweighted spectral count of the protein in the RNP capture)” value (SARS-CoV-2 gRNA) was 12 and the “background (unweighted spectral count in control)” value [1] was 2.
PPIA was tested, and the “target (unweighted spectral count, OC43 Probe II capture)” value (HCoV-OC43 gRNA and sgRNA; [2]) was 13, the “target (unweighted spectral count, OC43 Probe II)” value (HCoV-OC43 gRNA and sgRNA; [3]) was 12 and the “background (unweighted spectral count, no-probe control)” value (HCoV-OC43 gRNA and sgRNA; [4]) was 1. The “target (spectral count, OC43 Probe I RNP capture)” value (gRNA of HCoV-OC43; [8]) was 10, the “background (spectral count, no-probe control)” value (gRNA of HCoV-OC43; [9]) was 1 and the “back-ground (unweighted spectral count of the protein in the control experiment)” value ([1]; […]) was 10.
PTBP1: host protein, UniProt P26599 was tested, and the “target (unweighted spectral count, OC43 Probe II capture)” value (HCoV-OC43 gRNA and sgRNA; [2]) was 61, the “target (unweighted spectral count)” value (HCoV-OC43 gRNA and sgRNA; [6]) was 17 and the “target (unweighted spectral count)” value (HCoV-OC43 gRNA and sgRNA; [7]) was 33. For the same substance, the “target (unweighted spectral count, OC43 Probe II)” value (HCoV-OC43 gRNA and sgRNA; [3]) was 43, the “background (unweighted spectral count, no-probe control)” value (HCoV-OC43 gRNA and sgRNA; [4]) was 5 and the “target (spectral count)” value (HCoV-OC43 gRNA and sgRNA; 36 hpi) was 61. For the same substance, the “background (spectral count)” value (HCoV-OC43 gRNA and sgRNA; 36 hpi) was 12 and the “target (unweighted spectral count of the protein in the RNP capture)” value (SARS-CoV-2 gRNA) was 108.
With RPL22L1 the “target (unweighted spectral count)” value (HCoV-OC43 gRNA and sgRNA; [6]) was 5 and the “target (unweighted spectral count of the protein in the RNP capture)” value (SARS-CoV-2 gRNA) was 8.
SRSF1 was tested, and the “background (unweighted spectral count, no-probe control)” value (HCoV-OC43 gRNA and sgRNA) was 1, the “target (unweighted spectral count, OC43 Probe II capture)” value (HCoV-OC43 gRNA and sgRNA) was 14 and the “target (unweighted spectral count, OC43 Probe II)” value (HCoV-OC43 gRNA and sgRNA) was 20. The “background (spectral count, no-probe control)” value (gRNA of HCoV-OC43) was 1, the “target (spectral count, OC43 Probe I RNP capture)” value (gRNA of HCoV-OC43) was 17 and the “target (unweighted spectral count in RNP capture)” value ([1]; […]) was 8. For the same substance, the “background (unweighted spectral count in control)” value [1] was 1.
With VIM the “target (unweighted spectral count of the protein in the RNP capture)” value (SARS-CoV-2 gRNA) was 16, the “target (unweighted spectral count of the protein in the RNP capture experiment)” value ([1]; […], LC-MS/MS label-free quantification, probe pool not given) was 17 and the “back-ground (unweighted spectral count of the protein in the control experiment)” value ([1]; […]) was 4.
For YP_009725304.1, the “target (unweighted spectral count in RNP capture)” value (SARS-CoV-2 gRNA) was 5 and the “background (unweighted spectral count in control)” value (SARS-CoV-2 gRNA) was 1.
